# Values of other authors, collected in article PMC3742671, “Structure, Antimicrobial Activities and Mode of Interaction with Membranes of Bovel Phylloseptins from the Painted-Belly Leaf Frog, Phyllomedusa sauvagii” (PLoS ONE, 2013).
# Ends that are not written are not given here.
# Tested on: Escherichia coli
# Settings: cited from earlier work
# Source text: The 16–19 amino acid residue phylloseptins (PLSs) are a new emerging family of cationic antimicrobial peptides that belong to the dermaseptin superfamily, and whose members have been isolated from various genera of the Phyllomedusinae subfamily (Agalychnis, Phasmahyla, and Phyllomedusa), [10]–[16]. Like the archetypal dermaseptins (sensu stricto), these peptides seem to occur in multiple paralogous forms in each species with small differences in amino acid composition. Although only a few of these peptides were properly tested against various microorganisms, significant differences i ...
substance,measurement,value
FLSLIPHIVSGVASIAKHF-NH2 [PLS-S1],MIC,80 µM
